Experiment [1] relates to Bacillus subtilis. The experiment can be described thus: Protonophore activity in Bacillus subtilis subsp. subtilis str. 168 assessed as induction of rapid equlibration of delta-pH at 1 times MIC. Type of experiment: functional, organism-based.
Experiment [2] has as its system Bacillus subtilis. The experiment can be described thus: Increase in bacterial membrane permeability in Bacillus subtilis subsp. subtilis str. 168 at 1 times MIC pre-treated for 5 mins and measured 30 mins post dye addition by propidium iodide dye based flow cytometry. Format: functional, organism-based. On the technique in general: Flow cytometry measures light scatter and fluorescence of single cells or particles in a stream.

Experiment [3] relates to Bacillus subtilis. The experiment can be described thus: Induction of transmembrane potential loss in Bacillus subtilis subsp. subtilis str. 168 at 1 times MIC pre-treated for 5 mins and measured 15 mins post dye addition by DiOC2 dye based flow cytometry. Type of experiment: functional, organism-based.
Experiment [4] concerns Bacillus subtilis. The experiment can be described thus: Antimicrobial activity against Bacillus subtilis subsp. subtilis str. 168 after 18 hrs by macro-dilution method. Format: functional. The settings on record: subsp. subtilis str. 168, 18 h.
For experiment [5], the system named is Bacillus subtilis. The experiment can be described thus: Induction of membrane associated proteins mislocalization in Bacillus subtilis subsp. subtilis str. 168 assessed as reduction in GFP-MinD protein localization by fluorescence assay. Type of experiment: functional, organism-based.
The test system of experiment [6] is C2C12. The experiment can be described thus: Induction of membrane disruption in mouse C2C12 cells assessed as change in oxygen consumption rate. Format: functional, cell-based.
The test system of experiment [7] is Bacillus subtilis. The experiment can be described thus: Induction of transmembrane potential loss in Bacillus subtilis subsp. subtilis str. 168 assessed as lambda575/lambda530 fluorescence emission intensity ratio at 1 times MIC pre-treated for 20 mins and measured 15 mins post dye addition by DiOC2 dye based flow cytometry (reference value: 0.257 +/- 0.003 no unit). Type of experiment: functional.

Experiment [8] relates to Bacillus subtilis. The experiment can be described thus: Protonophore activity in Bacillus subtilis subsp. subtilis str. 168 assessed as induction of rapid equlibration of delta-pH at 30 uM. Format: functional, organism-based.
In experiment [9] the test system is C2C12. The experiment can be described thus: Induction of membrane disruption in mouse C2C12 cells assessed as maximum increase in oxygen consumption rate at 30 uM. Format: functional, cell-based.
In experiment [10] the test system is C2C12. The experiment can be described thus: Induction of membrane disruption in mouse C2C12 cells assessed as maximum increase in oxygen consumption rate at 0.6 uM. Type of experiment: functional, cell-based.
Experiment [11] has as its system C2C12. The experiment can be described thus: Induction of membrane disruption in mouse C2C12 cells assessed as increase in oxygen consumption rate at 0.1 to 1.2 uM. Type of experiment: functional, cell-based.
For experiment [12], the system named is Bacillus subtilis. The experiment can be described thus: Induction of transmembrane potential loss in Bacillus subtilis subsp. subtilis str. 168 assessed as lambda575/lambda530 fluorescence emission intensity ratio at 1 times MIC pre-treated for 5 mins and measured 15 mins post dye addition by DiOC2 dye based flow cytometry. Format: functional.

Molecules are shown by their SMILES. Converted amounts (≈) assume the structure as drawn. The source made the active and inactive calls. No cut-off for these calls is given here.

This note sets out measurements from ChEMBL document CHEMBL3217646, “Inhibitors of bacterial tubulin target bacterial membranes in vivo” (Medchemcomm, 2013).

By MIC is commonly meant the lowest concentration that inhibits growth of the organism. Read a low MIC as a more susceptible organism. With `C[n+]1cc2c3c(ccc2c2ccc4cc5c(cc4c21)OCO5)OCO3` [SANGUINARIUM], the outcome with Bacillus subtilis [1] was inactive. Besides, the result in the experiment with Bacillus subtilis [2] and with Bacillus subtilis [3] was Active. Further, in the experiment with Bacillus subtilis [4], the minimal inhibitory concentration (MIC) is 10 µM.

As for `COC(=O)CC1Cc2cc3cc(OC)c(-c4c(OC)cc5cc6c(c(O)c5c4O)C(=O)OC(CC(=O)OC)C6)c(O)c3c(O)c2C(=O)O1` (stereo unspecified) [VIRIDITOXIN], the result in the experiment on Bacillus subtilis [5] was Active. In addition, the result with Bacillus subtilis [1] and with Bacillus subtilis [3] was inactive. In addition, the MIC in the experiment on Bacillus subtilis [4] stood at 0.63 µM (≈ 0.417 µg/mL).

With `CC(C)c1c(O)ccc2c1CC[C@H]1C(C)(C)CCC[C@]21C` [TOTAROL], the result in the experiment on Bacillus subtilis [5], with Bacillus subtilis [2] and in the experiment with Bacillus subtilis [3] was Active. Further, the result in the experiment on Bacillus subtilis [1] and in the experiment on C2C12 [6] was inactive. In addition, the minimal inhibitory concentration (MIC) with Bacillus subtilis [4] was 2.5 µM (≈ 0.716 µg/mL).

On to `CO/N=C(\C(=O)N[C@@H]1C(=O)N2C(C(=O)O)=C(COC(N)=O)CS[C@H]12)c1ccco1` [CEFUROXIME], for which the result in the experiment on Bacillus subtilis [5] and with Bacillus subtilis [2] was inactive. Moreover, in the experiment on Bacillus subtilis [7], the Ratio amounted to 0.306. Besides, in the experiment with Bacillus subtilis [4], the MIC stood at 20 µM (≈ 8.49 µg/mL).

With `NC(=O)c1c(F)ccc(OCc2nc3cc(Cl)cnc3s2)c1F`, the result in the experiment with Bacillus subtilis [5], in the experiment on Bacillus subtilis [2] and in the experiment on Bacillus subtilis [3] was inactive. This compound also had a minimal inhibitory concentration (MIC) with Bacillus subtilis [4] of 2.5 µM (≈ 0.889 µg/mL).

Regarding `Oc1ccc(Cl)cc1Cc1cc(Cl)cc(Cc2cc(Cl)ccc2O)c1O`, the outcome in the experiment with Bacillus subtilis [5], in the experiment with Bacillus subtilis [8], in the experiment with C2C12 [9] and in the experiment on Bacillus subtilis [3] was Active. Moreover, the outcome with Bacillus subtilis [1] and in the experiment on Bacillus subtilis [2] was inactive. In the experiment with Bacillus subtilis [4], this compound gave a minimum inhibitory concentration (MIC) of 0.16 µM (≈ 0.0656 µg/mL).

For `N#CC(C#N)=NNc1cccc(Cl)c1` [CARBONYL CYANIDE M-CHLOROPHENYLHYDRAZONE], the outcome in the experiment with Bacillus subtilis [5], in the experiment with Bacillus subtilis [1], in the experiment on C2C12 [10] and with C2C12 [11] was Active. In addition, in the experiment with Bacillus subtilis [2], the outcome was inactive. Further, the Ratio in the experiment with Bacillus subtilis [12] is 0.045. In the experiment with Bacillus subtilis [4], the MIC came to 10 µM (≈ 2.05 µg/mL).

Consider `O=C/C=C/c1ccccc1` [CINNAMALDEHYDE], for which the result in the experiment on Bacillus subtilis [5], in the experiment on Bacillus subtilis [2] and with Bacillus subtilis [3] was Active. Further, the result in the experiment on Bacillus subtilis [1] was inactive. The compound further yielded a minimum inhibitory concentration (MIC) against Bacillus subtilis [4] of 2500 µM (≈ 330 µg/mL).
